Experimental data published in patent publication US20030007996A1, “Therapies for the prevention and treatment of diabetes and obesity” (priority 2001, published 2003).

Experiments:
soleus muscle strips = test: 3-O-methyl glucose transport (3MGT) in incubated soleus muscle strips (Example 12); type: cell-based, rat; details: for effect on 3MGT: 10 minute incubation
Procedure: Male Sprague-Dawley rats are used in all the following examples. Soleus muscle strips are incubated as described by Bonen et al (1992), Wilkes and Bonen (2000) and Bonen et al (1994) to determine glucose transport. Basal and insulin-stimulated 3-O-methyl glucose transport (3MGT) is examined in a dose dependent (0-10 nM) manner during a 10 minute incubation period in appropriate buffer (Bonen et al., 1994). Comparison of this dose-response relationship of insulin, and the A1 agonist CPA, and A2 agonist DPMA on 3MGT is conducted. 3MGT rates are linear for up to 20 minutes. The 10 minute period is therefore a convenient time point to acquire sufficient counts in the muscle at a reasonable cost of using radiolabelled 3MGT.
Optimal stimulating concentrations of insulin, CPA, and DPMA are established for 3MGT.

Akt = test: Signaling protein activation in isolated rodent muscles (Example 14); type: cell-based, rat
Procedure: Experiments with insulin, CPA and DPMA are performed in isolated muscles using optimal stimulating concentrations to determine which signaling proteins are activated. For this purpose, isolated rodent muscles are incubated with either basal or maximal insulin concentrations with and without either CPA or DPMA. Glucose transport is determined by 3MGT, measured over 10 minutes. The muscle samples are analyzed for IRTK, IRS-1 associated P13 kinase, p38 MAP kinase and Akt activities. The critical exposure time to activate signaling proteins is established in pilot work. […] Optimal exposure times required for signaling protein activation by CPA and DPMA are established. […] We establish that blocking P13-kinase with LY29004 blocks downstream activation of Akt by insulin, and by CPA and DPMA.

[1] = test system: A1 and A2 adenosine receptors; test: Adenosine receptor-stimulated adenylate cyclase activity (cAMP) in skeletal muscle homogenates (Example 4); type: biochemical, rat
Procedure: The purpose of this study was to investigate the presence of A1 and A2 adenosine receptors (AR) in rat and human skeletal muscle. Adenosine receptor-stimulated adenylate cyclase activity studies were conducted to determine cAMP responses in the presence of AR agonists using rat skeletal muscle homogenates. Subsequently, Western blotting experiments were conducted to identify the A1 and A2 receptor proteins in rodent and human skeletal muscle samples. […] There was little effect of R-PIA (an A1 AR agonist) on cAMP levels in any fiber type. […] A2a expression was highest in the liver compared to muscle and heart homogenates.

[2] = test system: obese type 2 diabetic males; test: OGTT with and without caffeine in obese type 2 diabetic males (Example 19); type: in vivo, human
[3] = test system: young, sedentary, obese males; test: OGTT after caffeine in obese, resting males (Example 7); type: in vivo, human; details: p<0.05
healthy male subjects = test: OGTT after alkaloid caffeine, caffeinated coffee, decaffeinated coffee or placebo (Example 3); type: in vivo, human; details: two hours of the OGTT; n=10
Procedure: (§1) The methods and materials employed in this invention are common to those skilled in the art. The methods and materials for the hyperinsulinemic euglycemic glucose clamp test are found in Greer et al., 2001. The methods and materials for the oral glucose tolerance test (OGTT) are described in Graham et al., 2001.
Venous blood samples were taken at −30, 0 (treatment given), 60 (OGTT administered), 75, 90, 120, 150 and 180 minutes and were analyzed for glucose, insulin, C peptide, glycerol, free fatty acids and lactate. Area under the curve (AUC) were calculated for the two hours of the OGTT. […] This component acts as an adenosine receptor […].

young type 1 diabetics = test: Caffeine followed by high glycemic index cereal in type 1 diabetics (Example 18); type: in vivo, human
Procedure: Young type 1 diabetics (5 females and 1 male) who had been diagnosed for an average of 8.3±5.4 years volunteered to perform two trials in a randomized, double blind study design. Subjects were given either placebo or caffeine-containing (5 mg/kg) capsules and 30 minutes later they self-administered the appropriate amount of insulin for the ingestion of 60 g of carbohydrates in the form of a high glycemic cereal with 125 ml of 1% milk. The amount of self-administered insulin and injection site were the same for both trials. Venous blood glucose was measured prior to capsule ingestion, prior to insulin injection, and immediately following ingestion of the cereal meal (t=0 minutes). Blood glucose was then measured every 15 minutes for the next 2.5 hours.

[4] = test system: obese (BMI>30) nondiabetic males; test: OGTT after caffeine ingestion in obese nondiabetic males (Example 5); type: in vivo, human; details: obese males (n=4)
[5] = test system: obese (BMI=30-38 kg/m2) men; test: OGTT after caffeine before and after a weight loss program (Example 6); type: in vivo, human
young, fit, adult males = test: Oral glucose tolerance test (OGTT) after caffeine ingestion in lean males (Example 2); type: in vivo, human
Source text: as §1
Young, fit, adult males (n=18) underwent two oral glucose tolerance tests (OGTT). […] Following the OGTT all of these parameters increased (p≦0.05) for the duration of the OGTT. […] During the OGTT these decreased to match those of the placebo trial. […] The data support the hypothesis that caffeine ingestion impairs glucose disposal.

[6] = test system: obese and Type 2 diabetic males; test: OGTT with and without caffeine in lean, obese and Type 2 diabetic males (Example 8); type: in vivo, human
Source text: The results will be compared to the current data base; containing data (28,40) collected in an identical fashion for 30 lean (BMI of less than 25) males age 18-30 years. Lean subjects have BMI of less than 25, the obese are class I (BMI 30-34), abdominal obese (waist circumference>100 cm) and the diabetics have the same anthropometry. The diabetics are volunteers who have been well controlled for a year, with glycosylated hemoglobin levels between 6.5-9.5% for at least three months. They have similar levels of obesity, are not insulin-dependent, and are not on oral hypoglycemic agents, but rather diet-controlled. Their participation is medically approved and they are screened for hypertension and angina. The area under the curve for insulin and C-peptide is greater for the obese and even greater for the diabetic subjects. […] Data also includes plasma catecholamines, methylxanthines, FFA, and glycerol.

lean sedentary males = test: Hyperinsulinemic euglycemic clamp after caffeine ingestion (Example 1); type: in vivo, human
Procedure: as §1
Trials were separated by one week. Prior to each clamp session, subjects withdrew from methylxanthine containing products for 48 hours.

[7] = caffeine 5 mg/kg 1 h before 75 g dextrose, p≦0.05
[8] = last 90 minutes of the OGTT, p≦0.05

With `OC[C@H]1O[C@@H](n2cnc3c(NC4CCCC4)ncnc32)[C@H](O)[C@@H]1O` [CPA, N6-cyclopentyladenosine] as the compound, how does the “effect on 3MGT” value (soleus muscle strips) read?
The value was “increases”.

Which “effect on 3MGT” value (soleus muscle strips) does the source give for `COc1cc(OC)cc(C(CNc2ncnc3c2ncn3[C@@H]2O[C@H](CO)[C@@H](O)[C@H]2O)c2ccccc2C)c1` (stereo partly shown) [DPMA, N-[2-(3,5-dimethoxy-phenyl)-2-(2-methylphenyl)ethyl]-adenosine] here?
Its value is “increases”.

What does the source list for `O=c1cc(N2CCOCC2)oc2c(-c3ccccc3)cccc12` [LY29004]?
effect on CPA- and DPMA-induced increases in 3MGT (soleus muscle strips): inhibited; effect on insulin stimulated 3MGT (soleus muscle strips): inhibited; effect on downstream activation of Akt by insulin, and by CPA and DPMA (Akt): blocks

What does the source list for `CCNC(=O)[C@H]1O[C@@H](n2cnc3c(N)ncnc32)[C@H](O)[C@@H]1O` [NECA]?
effect on cAMP production ([1]; glycolytic samples): no effect; increase in cAMP production ([1]; rat oxidative muscle homogenates): 7.5 fold

How did the “effect on cAMP levels” value ([1]; any fiber type) turn out when `C[C@H](Cc1ccccc1)Nc1ncnc2c1ncn2[C@@H]1O[C@H](CO)[C@@H](O)[C@H]1O` [R-PIA] was run?
Its value is “little effect”.

With `Cn1c(=O)c2c(ncn2C)n(C)c1=O` [caffeine] as the compound, how does the blood glucose ([2]; 180 minutes following ingestion of the OGTT, caffeine 5 mg/kg, placebo 7.4±1.0) read?
Its blood glucose is 8.4 ± 0.8 mM.

What about the “blood glucose compared with placebo” value ([2]; last hour of the OGTT (120 to 180 minutes), p<0.05) of the same compound?
Its value is “significantly elevated”.

What about the “glucose area under the curve during the OGTT” value ([3]; caffeine 5 mg/kg, n=28, placebo 188.5) of the same compound?
Its value is 260.1 mM/2h.

And the “insulin area under the curve during the OGTT” value ([3]; caffeine 5 mg/kg, n=28, placebo 7037.9)?
Its value is 9455.8 uIU/ml/2h.

What about the “glucose level vs placebo” value ([3]; last 90 minutes of the OGTT) of the same compound?
Its value is “significantly greater”.

And the “insulin level vs placebo” value ([3]; last 105 minutes of the OGTT)?
The value was “significantly greater”.

What about the “AUC for glucose, comparison between treatments” value (healthy male subjects) of the same compound?
Its value is “higher than both CC (p<0.04) and DC (p<0.01)”.

And the “AUC for insulin, comparison between treatments” value (healthy male subjects)?
The value was “higher AUC for insulin (see FIG. 5) than both PL (p<0.002) and DC (p<0.001)”.

And the “AUC for peptide C, comparison between treatments” value (healthy male subjects)?
Its value is “higher values than both PL (p<0.02) and DC (p<0.001)”.

What about the “difference in the glucose area under the curve, caffeine vs placebo” value (young type 1 diabetics; caffeine 5 mg/kg) of the same compound?
Its value is 72%.

And the “glucose area under the curve” value (young type 1 diabetics; caffeine 5 mg/kg capsules, placebo 347±7.4, p<0.01)?
The value was 598±7.4 mM/2.5 h.

What about the “AUC for GLU” value [4] of the same compound?
Its value is 167 mM/2 h.

What about the “insulin AUC” value ([4]; placebo 6938) of the same compound?
Its value is 10,968 uU/ml/2 h.

And the “increase in insulin during the OGTT compared to placebo” value ([5]; following the twelve week intervention, p=0.056)?
Its value is “greater”.

And the “blood glucose vs placebo” value ([5]; prior to the twelve week intervention)?
Its value is “no differences”.

And the “insulin response during the OGTT vs placebo” value ([5]; prior to the twelve week intervention, caffeine 5 mg/kg, p=0.043)?
The value was “greater”.

And the “serum fatty acids, glycerol and plasma epinephrine” value (young, fit, adult males; after caffeine ingestion, before OGTT, p≦0.05)?
Its value is “increase”.

What about the “serum C peptide area under the curve, greater than placebo” value (young, fit, adult males; [7]) of the same compound?
Its value is 37%.

What about the “serum insulin area under the curve, greater than placebo” value (young, fit, adult males; [7]) of the same compound?
Its value is 60%.

What about the “blood glucose level vs placebo” value (young, fit, adult males; during OGTT) of the same compound?
Its value is “no differences between trials”.

What about the “serum C peptide concentration vs placebo” value (young, fit, adult males; [8]) of the same compound?
The value was “significantly greater”.

What about the “serum insulin concentration vs placebo” value (young, fit, adult males; [8]) of the same compound?
Its value is “significantly greater”.

What about the “AUC for GLU” value (young, fit, adult males; lean males (n=18), OGTT) of the same compound?
Its value is 168 mM/2 h.

And the “insulin AUC” value (young, fit, adult males; lean males (n=18), OGTT, placebo 3274)?
Its value is 5242 uU/ml/2h.

And the “area under the curves for insulin and C-peptide following caffeine ingestion” value ([6]; lean subjects)?
Its value is “increased”.

What about the “area under the curves for insulin and C-peptide following caffeine ingestion” value ([6]; obese and diabetic subjects, relative to lean) of the same compound?
The value was “even greater response”.

What about the “decrease in carbohydrate storage compared to placebo” value (lean sedentary males; caffeine 5 mg/kg) of the same compound?
Its value is 35%.

What about the “decrease in glucose disposal” value (lean sedentary males; caffeine 5 mg/kg vs placebo) of the same compound?
Its value is 24%.

And the glucose disposal (lean sedentary males; caffeine 5 mg/kg, placebo 8.42+/−0.63, n=9)?
The glucose disposal was 6.38 ± 0.76 mg/kg/min.
